Here are results for 13 compounds from US8143290B2, “Chemical compounds 572” (AstraZeneca AB, priority 2006, dated 2012).

In the assay the target is T1, recombinant human GR (Homo sapiens, UniProt P04150).
T1 construct: purchased Panvera/Invitrogen P2812 (kit P2893)
T1 sequence (P04150 1-777): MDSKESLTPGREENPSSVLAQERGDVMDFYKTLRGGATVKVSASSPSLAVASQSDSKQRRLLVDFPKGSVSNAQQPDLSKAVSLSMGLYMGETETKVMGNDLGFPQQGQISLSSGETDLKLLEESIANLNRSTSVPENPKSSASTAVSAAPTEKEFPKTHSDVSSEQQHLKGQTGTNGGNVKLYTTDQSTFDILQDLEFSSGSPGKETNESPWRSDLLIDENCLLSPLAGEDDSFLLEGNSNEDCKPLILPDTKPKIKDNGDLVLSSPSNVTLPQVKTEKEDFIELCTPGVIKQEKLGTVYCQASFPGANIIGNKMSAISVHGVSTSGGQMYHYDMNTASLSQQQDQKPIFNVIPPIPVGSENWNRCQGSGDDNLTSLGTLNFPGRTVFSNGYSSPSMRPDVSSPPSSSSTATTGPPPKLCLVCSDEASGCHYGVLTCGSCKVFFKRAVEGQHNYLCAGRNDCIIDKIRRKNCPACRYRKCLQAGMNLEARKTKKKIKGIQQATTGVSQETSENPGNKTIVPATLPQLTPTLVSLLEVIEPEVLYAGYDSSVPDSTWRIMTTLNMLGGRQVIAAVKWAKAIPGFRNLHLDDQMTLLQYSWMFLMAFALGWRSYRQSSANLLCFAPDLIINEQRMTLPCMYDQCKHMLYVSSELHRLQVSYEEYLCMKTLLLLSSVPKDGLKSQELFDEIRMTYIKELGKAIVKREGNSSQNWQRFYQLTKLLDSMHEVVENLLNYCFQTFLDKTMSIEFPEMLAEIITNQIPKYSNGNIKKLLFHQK
Nature of the assay: Human Glucocorticoid Receptor (GR) Assay, fluorescence polarization. The settings on record: GS Red tracer, incubated 2 h at r.t., XLfit model 205, read-out: GRhuFL_FP_v2 Mean IC50. The assay is classed as binding. In outline: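 Fluorescence polarization kit assay: recombinant GR and GS Red fluorescent ligand with Stabilizing Peptide and DTT in potassium phosphate/sodium molybdate/EDTA screening buffer. Plates incubated 2 h in the dark at r.t.; DMSO served as 0% and dexamethasone as 100% control.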
As a reminder, the IC50 is the midpoint of a concentration-inhibition curve. In the case of `CC(=O)NC(C)C(Oc1cc2cnn(-c3ccc(F)cc3)c2cc1Cl)c1ccc(F)cc1` (racemic) [Example 100, N-[(1RS,2SR)-1-[6-chloro-1-(4-fluorophenyl)indazol-5-yl]oxy-1-(4-fluorophenyl)propan-2-yl]acetamide], the IC50 amounted to 9.2 nM.
To `C[C@H](NC(=O)C(F)(F)F)[C@H](Oc1ccc2c(cnn2-c2ccc(Cl)nn2)c1)c1ccccc1` [Example 119, N-{2-[1-(6-Chloro-pyridazin-3-yl)-1H-indazol-5-yloxy]-1-methyl-2-phenyl-ethyl}-2,2,2-trifluoro-acetamide] belongs 3.1 nM; to `Cc1cnc(C(=O)N[C@@H](C)[C@H](Oc2ccc3c(cnn3-c3ccc(F)cc3)c2)c2ccc(C)c(C)c2)s1` [Example 192, N-[(1R,2S)-1-(3,4-dimethylphenyl)-1-[1-(4-fluorophenyl)indazol-5-yl]oxy-propan-2-yl]-5-methyl-1,3-thiazole-2-carboxamide], 4.3 nM; to `COc1cccc([C@@H](Oc2ccc3c(cnn3-c3ccc(F)cc3)c2)[C@H](C)NC(=O)c2nc[nH]n2)c1` [Example 281, N-[(1R,2S)-1-[1-(4-fluorophenyl)indazol-5-yl]oxy-1-(3-methoxyphenyl)propan-2-yl]-1H-1,2,4-triazole-3-carboxamide], 3.8 nM.
The value for `CC(C)[C@@H](C)NC(=O)N[C@@H](C)[C@H](Oc1ccc2c(cnn2-c2ccc(F)cc2)c1)c1ccccc1` [Example 107] was 4 nM; that for `COCC(=O)N[C@@H](C)[C@H](Oc1ccc2c(cnn2-c2ccc(F)cc2)c1)c1ccc(C)c(F)c1` [Example 259, N-[(1R,2S)-1-(3-fluoro-4-methyl-phenyl)-1-[1-(4-fluorophenyl)indazol-5-yl]oxy-propan-2-yl]-2-methoxy-acetamide] was 5.3 nM.
Regarding `Cc1cc2c(cnn2-c2ccc(F)cc2)cc1O[C@H](c1ccccc1)[C@H](C)NC(=O)C(C)(C)C` [Example 63, N-[(1R,2S)-1-[1-(4-Fluorophenyl)-6-methyl-indazol-5-yl]oxy-1-phenyl-propan-2-yl]-2,2-dimethyl-propanamide], the half-inhibitory concentration (IC50) was determined as 4.4 nM.
To `C[C@H](NC(=O)C(F)(F)F)[C@H](Oc1ccc2c(cnn2C2CCCC2)c1)c1ccccc1` [Example 130, N-[(1R,2S)-1-(1-cyclopentylindazol-5-yl)oxy-1-phenyl-propan-2-yl]-2,2,2-trifluoro-acetamide] belongs 2.5 nM; to `C[C@H](NC(=O)C(Cl)(Cl)Cl)[C@H](Oc1ccc2c(cnn2-c2ccc(F)cc2)c1)c1ccccc1` [Example 40, 2,2,2-Trichloro-N-[(1R,2S)-1-[1-(4-fluorophenyl)indazol-5-yl]oxy-1-phenyl-propan-2-yl]acetamide], 3.4 nM.
To `C[C@H](NC(=O)CCl)[C@H](Oc1ccc2c(cnn2-c2ccc(F)cc2)c1)c1ccccc1` [Example 38, 2-Chloro-N-[(1R,2S)-1-[1-(4-fluorophenyl)indazol-5-yl]oxy-1-phenyl-propan-2-yl]acetamide] belongs 2.4 nM; to `C[C@H](NC(=O)C(C)(C)F)[C@H](Oc1ccc2c(cnn2-c2ccc(F)cc2)c1)c1cccc(F)c1` [Example 243, 2-fluoro-N-[(1R,2S)-1-(3-fluorophenyl)-1-[1-(4-fluorophenyl)indazol-5-yl]oxy-propan-2-yl]-2-methyl-propanamide], 5.5 nM.
The value for `C[C@H](NC(=O)C(F)(F)F)[C@H](COc1ccccc1)Oc1ccc2c(cnn2-c2ccc(F)cc2)c1` (racemic) [Example 70, 2,2,2-Trifluoro-N-[(2RS,3SR)-3-[1-(4-fluorophenyl)indazol-5-yl]oxy-4-phenoxy-butan-2-yl]acetamide] was 89 nM; that for `COc1cccc([C@@H](Oc2ccc3c(cnn3-c3ccc(F)cc3)c2)[C@H](C)NC(=O)c2cc3ccccn3n2)c1` [Example 293, N-[(1R,2S)-1-[1-(4-fluorophenyl)indazol-5-yl]oxy-1-(3-methoxyphenyl)propan-2-yl]-1,9-diazabicyclo[4.3.0]nona-2,4,6,8-tetraene-8-carboxamide] was 4.4 nM.
